# Results reported in the supplement of paper PMC10307832.
# Columns and labels:
# Assay in all cases: relative viability (nuclei count vs DMSO), 5 days (fraction); higher = more cells survive
# [1] = system: NCI-H2009
# Procedure, shortened: (§1)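 Relative viability is defined as nuclei in treated wells over nuclei in vehicle wells. Duplicate plates were run and medians reported. Lung cancer cell lines in 1536-well plates were dosed by pin tool one day after seeding, with one drug or with a fixed anchor-drug dose plus five library-drug doses (not always all listed) in √10 steps, and nuclei were counted after 5 days.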
# [2] = system: HCC-44
# Procedure, shortened: as §1
# [3] = system: NCI-H1944
# Procedure, shortened: as §1
# [4] = system: NCI-H2023
# Procedure, shortened: as §1
# [5] = system: HCC-827
# Procedure, shortened: as §1
# [6] = system: NCI-H2228
# Procedure, shortened: as §1
# [7] = system: HCC-366
# Procedure, shortened: as §1
# [8] = system: COR-L23
# Procedure, shortened: as §1
# [9] = system: SW 1573
# Procedure, shortened: as §1
# [10] = system: ABC-1
# Procedure, shortened: as §1
# [11] = system: NCI-H2085
# Procedure, shortened: as §1
# [12] = system: LCLC-103H
# Procedure, shortened: as §1
# [13] = system: NCI-H3122
# Procedure, shortened: as §1
# [14] = system: PC-14
# Procedure, shortened: as §1
# [15] = system: NCI-H2347
# Procedure, shortened: as §1
# [16] = system: NCI-H1355
# Procedure, shortened: as §1
# [17] = system: NCI-H1793
# Procedure, shortened: as §1
# [18] = system: NCI-H2405
# Procedure, shortened: as §1
# [19] = system: HCC-15
# Procedure, shortened: as §1
# [20] = system: EPLC-272H
# Procedure, shortened: as §1
# [21] = system: NCI-H1734
# Procedure, shortened: as §1
smiles,measurement,setting,value
Cc1csc(=NC2CCCCC2)n1/N=C/c1ccc(O)c(O)c1O [MIM1] + C[C@]1(O)C[C@@H](c2nc(-c3ccc4ccc(-c5ccccc5)nc4c3)c3c(N)nccn32)C1 [Linsitinib] (partner 1 µM),relative viability,[1]; first compound 0.2 µM,1.25
same,relative viability,[1]; first compound 0.6325 µM,1.18
same,relative viability,[1]; first compound 2 µM,1.18
same,relative viability,[1]; first compound 6.325 µM,1.06
same,relative viability,[1]; first compound 20 µM,1.05
same,relative viability,[2]; first compound 0.2 µM,0.67
same,relative viability,[2]; first compound 0.6325 µM,0.713
same,relative viability,[2]; first compound 2 µM,0.555
same,relative viability,[2]; first compound 6.325 µM,0.555
same,relative viability,[2]; first compound 20 µM,0.141
same,relative viability,[3]; first compound 0.2 µM,1.12
same,relative viability,[3]; first compound 0.6325 µM,1.13
same,relative viability,[3]; first compound 2 µM,0.923
same,relative viability,[3]; first compound 6.325 µM,1
same,relative viability,[3]; first compound 20 µM,1.46
same,relative viability,[4]; first compound 0.2 µM,0.625
same,relative viability,[4]; first compound 0.6325 µM,0.739
same,relative viability,[4]; first compound 2 µM,0.615
same,relative viability,[4]; first compound 6.325 µM,0.482
same,relative viability,[4]; first compound 20 µM,0.443
same,relative viability,[5]; first compound 0.2 µM,0.955
same,relative viability,[5]; first compound 0.6325 µM,0.971
same,relative viability,[5]; first compound 2 µM,0.959
same,relative viability,[5]; first compound 6.325 µM,0.387
same,relative viability,[5]; first compound 20 µM,0.741
same,relative viability,[6]; first compound 0.2 µM,0.752
same,relative viability,[6]; first compound 0.6325 µM,0.638
same,relative viability,[6]; first compound 2 µM,0.877
same,relative viability,[6]; first compound 6.325 µM,0.217
same,relative viability,[6]; first compound 20 µM,0.208
same,relative viability,[7]; first compound 0.2 µM,0.511
same,relative viability,[7]; first compound 0.6325 µM,0.715
same,relative viability,[7]; first compound 2 µM,0.565
same,relative viability,[7]; first compound 6.325 µM,0.361
same,relative viability,[7]; first compound 20 µM,0.0221
same,relative viability,[8]; first compound 0.2 µM,0.77
same,relative viability,[8]; first compound 0.6325 µM,1.12
same,relative viability,[8]; first compound 2 µM,1.01
same,relative viability,[8]; first compound 6.325 µM,0.813
same,relative viability,[8]; first compound 20 µM,0.498
same,relative viability,[9]; first compound 0.2 µM,0.872
same,relative viability,[9]; first compound 0.6325 µM,0.792
same,relative viability,[9]; first compound 2 µM,0.678
same,relative viability,[9]; first compound 6.325 µM,0.767
same,relative viability,[9]; first compound 20 µM,0.607
same,relative viability,[10]; first compound 0.2 µM,0.769
same,relative viability,[10]; first compound 0.6325 µM,1.14
same,relative viability,[10]; first compound 2 µM,0.651
same,relative viability,[10]; first compound 6.325 µM,0.388
same,relative viability,[10]; first compound 20 µM,0.24
same,relative viability,[11]; first compound 0.2 µM,1.04
same,relative viability,[11]; first compound 0.6325 µM,0.912
same,relative viability,[11]; first compound 2 µM,0.971
same,relative viability,[11]; first compound 6.325 µM,0.815
same,relative viability,[11]; first compound 20 µM,0.934
same,relative viability,[12]; first compound 0.2 µM,0.994
same,relative viability,[12]; first compound 0.6325 µM,1.08
same,relative viability,[12]; first compound 2 µM,1.22
same,relative viability,[12]; first compound 6.325 µM,0.999
same,relative viability,[12]; first compound 20 µM,1.05
same,relative viability,[13]; first compound 0.2 µM,0.959
same,relative viability,[13]; first compound 0.6325 µM,1.08
same,relative viability,[13]; first compound 2 µM,1.12
same,relative viability,[13]; first compound 6.325 µM,0.926
same,relative viability,[13]; first compound 20 µM,0.396
same,relative viability,[14]; first compound 0.2 µM,0.893
same,relative viability,[14]; first compound 0.6325 µM,0.932
same,relative viability,[14]; first compound 2 µM,0.956
same,relative viability,[14]; first compound 6.325 µM,0.719
same,relative viability,[14]; first compound 20 µM,0.499
same,relative viability,[15]; first compound 0.2 µM,0.985
same,relative viability,[15]; first compound 0.6325 µM,0.994
same,relative viability,[15]; first compound 2 µM,0.98
same,relative viability,[15]; first compound 6.325 µM,0.736
same,relative viability,[15]; first compound 20 µM,0.656
same,relative viability,[16]; first compound 0.2 µM,0.812
same,relative viability,[16]; first compound 0.6325 µM,0.882
same,relative viability,[16]; first compound 2 µM,0.898
same,relative viability,[16]; first compound 6.325 µM,0.74
same,relative viability,[16]; first compound 20 µM,0.879
same,relative viability,[17]; first compound 0.2 µM,0.799
same,relative viability,[17]; first compound 0.6325 µM,0.902
same,relative viability,[17]; first compound 2 µM,0.809
same,relative viability,[17]; first compound 6.325 µM,0.925
same,relative viability,[17]; first compound 20 µM,1.02
same,relative viability,[18]; first compound 0.2 µM,0.906
same,relative viability,[18]; first compound 0.6325 µM,1.08
same,relative viability,[18]; first compound 2 µM,0.946
same,relative viability,[18]; first compound 6.325 µM,0.778
same,relative viability,[18]; first compound 20 µM,0.742
same,relative viability,[19]; first compound 0.2 µM,0.901
same,relative viability,[19]; first compound 0.6325 µM,0.808
same,relative viability,[19]; first compound 2 µM,0.941
same,relative viability,[19]; first compound 6.325 µM,0.476
same,relative viability,[19]; first compound 20 µM,0.211
same,relative viability,[20]; first compound 0.2 µM,1.06
same,relative viability,[20]; first compound 0.6325 µM,1.15
same,relative viability,[20]; first compound 2 µM,1.17
same,relative viability,[20]; first compound 6.325 µM,1.26
same,relative viability,[20]; first compound 20 µM,0.988
same,relative viability,[21]; first compound 0.2 µM,0.829
same,relative viability,[21]; first compound 0.6325 µM,1.01
same,relative viability,[21]; first compound 2 µM,0.853
same,relative viability,[21]; first compound 6.325 µM,0.754
same,relative viability,[21]; first compound 20 µM,0.422
